Measurements from publication PMC10779102, “Structural Studies of Klebsiella pneumoniae Fosfomycin-Resistance Protein and Its Application for the Development of an Optical Biosensor for Fosfomycin Determination” (International Journal of Molecular Sciences, 2023).

Assays:
FosAPA = molecular target: T1, FosAPA (Pseudomonas aeruginosa, UniProt Q9I4K6); assay: DTNB ([…] nm) assay of GSH conjugation, time course; format: biochemical; conditions: 10 mM Fos, 15 mM GSH, 0.1 M sodium phosphate pH 8, 100 mM KCl, 0.05 mM MnCl2, 25 °C
T1 construct: gene fosA
T1 sequence (Q9I4K6 whole entry): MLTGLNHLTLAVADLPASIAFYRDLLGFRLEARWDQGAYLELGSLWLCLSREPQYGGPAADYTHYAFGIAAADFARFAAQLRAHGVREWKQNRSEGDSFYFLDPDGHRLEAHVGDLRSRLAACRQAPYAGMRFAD

FosAKP = molecular target: T2, FosAKP (Klebsiella pneumoniae, UniProt A0A086IRG1); assay: DTNB ([…] nm) activity assay; crystal structure of complex ([…] Å); format: biochemical; conditions: read-out: % inhibition at 5 mM
T2 construct: gene fosA
T2 sequence (A0A086IRG1 entry or part of it): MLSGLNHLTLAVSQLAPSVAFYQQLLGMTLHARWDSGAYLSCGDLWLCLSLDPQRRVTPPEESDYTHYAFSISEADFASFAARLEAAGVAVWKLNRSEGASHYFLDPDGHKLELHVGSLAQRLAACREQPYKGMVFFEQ

[1] = tested on: C[C@@H]1O[C@@H]1P(=O)(O)O; assay: purified protein; format: biochemical, Klebsiella pneumoniae; conditions: free enzyme, 15 mM GSH, 0.1 M sodium phosphate pH 8, 100 mM KCl, 0.05 mM MnCl2, 25 °C, also bound in active site of crystal structure

In the case of `C[C@@H]1O[C@@H]1P(=O)(O)O` [Fosfomycin, (1R,2S)-epoxypropylphosphonic acid], the “DTNB (412 nm) assay of GSH conjugation, time course” value (FosAPA) is reported as “time course of Fos conjugation with GSH, catalyzed by FosAPA and FosAKP”.

Compound `O=C(O)C(O)C(O)C(=O)O` (stereo not drawn) [Tar] has an inhibition at 5000 µM (FosAKP) of 20.7%.

FosAKP (Klebsiella pneumoniae) gave a Km [1] of 2200 ± 300 µM.
